From US5324516A, “Galenic composition for decreasing blood alcohol concentration” (priority 1991, dated 1994)

Assay: Test 3: effect of each of primary ingredients on blood ethanol concentration in rats
Format: in vivo, rat
Details: pueraria flower 0.28, phaseoli 0.39, pinelliae 0.09, fructose 1.2 g/kg
Protocol: The 50 g of pueraria flower was finely chopped and extracted with 11 of water at 100° C. for 2.5 hours. The extract was filtered and lyophilized in a freeze dryer. The 10.7 g of the powder was obtained.
The phaseoli radiati semen and pinelliae tuber were extracted and lyophilized in the same manner as described for puerariae flos. The 14.6 g and 7 g of powder were obtained from phaseoli radiati semen and pinelliae tuber, respectively.
The powder of pueraria flower, phaseoli radiati semen, pinelliae tuber, and fructose were dissolved in an adquate volume of water and administered to rats fasted 18 to 24 hours at a dose of 0.28 g, 0.39 g, 0.09 g and 1.2 g/kg body weight, respectively. The rats were treated in the same manner as Test 2.

In the case of `O=C(CO)[C@@H](O)[C@H](O)[C@H](O)CO` [Fructose], the “Alcohol concentration in blood” value (1 hr after 3 g/kg ethanol) was 1.984 g/L, the “Alcohol concentration in blood” value (2 hr after 3 g/kg ethanol) was 1.654 g/L and the “Alcohol concentration in blood” value (4 hr after 3 g/kg ethanol) was 0.724 g/L. For the same compound, the “Alcohol concentration in blood” value (6 hr after 3 g/kg ethanol) was 0.325 g/L.
